Laboratory results published in article PMC11203266, “Continuous evolution of compact protein degradation tags regulated by selective molecular glues” (Science (New York, N.Y.), 2024).

Experiments:
CRBN = CRBN (Homo sapiens, UniProt Q96SW2); assay: In-cell CRBN engagement NanoBRET; settings: for EC50: EC50 CRBN engagement
Protocol: U2OS or HEK293T cells were transfected with a combination of NanoLuc-CRBN fusion vector (1 μg/ 100,000 cells) and DDB1 expression vector (4 μg/ 100,000 cells) encoded plasmid (Promega N2910) using Lipofectamine 3000 reagent (Thermo Fischer Scientific, L3000015). […] The transfected cells were washed with PBS, trypsinized, and plated in a 384-well white microplate (Corning, 3765) at 3000 cells in 34 μL Opti-MEM I reduced serum medium per well. […] The plates were incubated for 1 hour at 37 °C, 5% CO2. After incubation plates were brought to room temperature and incubated with 3X complete substrate plus inhibitor solution (20 μL) for 3 minutes at room temperature before measuring BRET signal on an EnVision multilabel plate reader with EnVision Manager 1.13 (PerkinElmer). At each liquid handling step, the plates were shaken on a Thermo Fisher combi instrument followed by centrifugation at 100 xg for 1 minute.
Lipofectamine 2000 was used in place of lipofectamine 3000 for all transfections, 1 μg of pSD192A was included for generating the SD40-PRKRA overexpression sample, and the assay was performed using 2,500 cells per well.
NanoBRET values for the in-cell CRBN engagement assay were calculated as follows:
2) mean corrected NanoBRET ratio mBU = Mean mBU experimental − Mean mBU no-ligand control.
EC50 values were calculated in GraphPad Prism (v9.5.1), using an inhibitor vs. response variable slope (four parameter) model.

[1] = tested on: SD40 fusions with Nluc, Fluc, and PRKRA; assay: Immunoblot, degradation of exogenously expressed SD40 fusion proteins in HEK293T cells; format: cell-based, human
Protocol: To test the versatility of SD40, we generated five stable HEK293T cell lines that exogenously express N- or C-terminal SD40 fusions with Nluc, Fluc, and the kinase activator PRKRA. […] To investigate whether SD40 targets unintended neosubstrates for degradation, we performed global proteomics using HEK293T cells stably expressing SD40–eGFP.
HEK293T or K562 cells were plated at a density of 1.6 x 10^5 cells/well in a 24-well plate coated with poly-D-lysine (Corning) in 1 mL media (DMEM + 10% FBS for HEK293T cells and RPMI + 10% FBS for K562 cells). After 16–18 hrs, cells were treated with either DMSO or the indicated concentration of small molecules to a 0.5% final concentration of DMSO. Plates were incubated at 37 °C, 5% CO2 for 24 hours for all cell lines except endogenously tagged PLK1–SD40 HEK293T cells, which were incubated for 2 hours. Cells were washed with PBS and then lysed for 30 minutes at 4 °C in radioimmunoprecipitation assay (RIPA; 25 mM Tris-HCl, 150 mM NaCl, 1% NP-40, 1% sodium deoxycholate, 0.1% SDS, pH ~ 7.6) buffer containing 1 mM phenylmethylsulfonyl fluoride (PMSF; Sigma Aldrich) and 1 x EDTA-free protease inhibitor cocktail (Roche). Lysates were centrifuged for 20 min @18,000 x g to isolate the soluble fractions. Protein concentration in clarified lysates was quantified using Pierce BCA Protein Assay Kit (Thermo Scientific) according to the manufacturer’s protocol. Clarified lysates were mixed with NuPAGE LDS Sample Buffer (Thermo NP0007) containing 10 mM DTT and boiled for 10 minutes. Gel electrophoresis was performed on boiled samples using polyacrylamide gels (Invitrogen NP0329BOX) with equal amounts of total protein in each lane. Proteins were transferred to nitrocellulose membranes (Invitrogen IB23001) using the iBlot 2 (Invitrogen IB21001) P0 protocol. After transfer, membranes were blocked in blocking buffer (50 mM Tris-HCl, 150 mM NaCl, 0.5% Tween-20, 1% bovine serum albumin, pH 7.4) for 1 hr at RT and then incubated with primary antibody overnight at 4 °C in blocking buffer. […]

Sequence of CRBN (Q96SW2 whole entry, the tested form may be a part): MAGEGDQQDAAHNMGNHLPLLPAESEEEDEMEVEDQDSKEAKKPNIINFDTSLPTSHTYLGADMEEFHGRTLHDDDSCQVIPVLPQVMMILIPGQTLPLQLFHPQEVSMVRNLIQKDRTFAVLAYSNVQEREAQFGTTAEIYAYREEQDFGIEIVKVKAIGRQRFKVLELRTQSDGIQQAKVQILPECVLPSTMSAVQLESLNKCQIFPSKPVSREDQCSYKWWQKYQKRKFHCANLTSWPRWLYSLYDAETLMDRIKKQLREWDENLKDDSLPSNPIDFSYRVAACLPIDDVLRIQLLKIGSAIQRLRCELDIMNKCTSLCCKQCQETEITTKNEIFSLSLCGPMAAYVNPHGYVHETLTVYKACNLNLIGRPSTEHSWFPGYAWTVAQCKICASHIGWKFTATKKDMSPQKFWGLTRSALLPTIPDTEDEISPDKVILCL
Sequence of CRBN (Q16531 whole entry partner, the tested form may be a part): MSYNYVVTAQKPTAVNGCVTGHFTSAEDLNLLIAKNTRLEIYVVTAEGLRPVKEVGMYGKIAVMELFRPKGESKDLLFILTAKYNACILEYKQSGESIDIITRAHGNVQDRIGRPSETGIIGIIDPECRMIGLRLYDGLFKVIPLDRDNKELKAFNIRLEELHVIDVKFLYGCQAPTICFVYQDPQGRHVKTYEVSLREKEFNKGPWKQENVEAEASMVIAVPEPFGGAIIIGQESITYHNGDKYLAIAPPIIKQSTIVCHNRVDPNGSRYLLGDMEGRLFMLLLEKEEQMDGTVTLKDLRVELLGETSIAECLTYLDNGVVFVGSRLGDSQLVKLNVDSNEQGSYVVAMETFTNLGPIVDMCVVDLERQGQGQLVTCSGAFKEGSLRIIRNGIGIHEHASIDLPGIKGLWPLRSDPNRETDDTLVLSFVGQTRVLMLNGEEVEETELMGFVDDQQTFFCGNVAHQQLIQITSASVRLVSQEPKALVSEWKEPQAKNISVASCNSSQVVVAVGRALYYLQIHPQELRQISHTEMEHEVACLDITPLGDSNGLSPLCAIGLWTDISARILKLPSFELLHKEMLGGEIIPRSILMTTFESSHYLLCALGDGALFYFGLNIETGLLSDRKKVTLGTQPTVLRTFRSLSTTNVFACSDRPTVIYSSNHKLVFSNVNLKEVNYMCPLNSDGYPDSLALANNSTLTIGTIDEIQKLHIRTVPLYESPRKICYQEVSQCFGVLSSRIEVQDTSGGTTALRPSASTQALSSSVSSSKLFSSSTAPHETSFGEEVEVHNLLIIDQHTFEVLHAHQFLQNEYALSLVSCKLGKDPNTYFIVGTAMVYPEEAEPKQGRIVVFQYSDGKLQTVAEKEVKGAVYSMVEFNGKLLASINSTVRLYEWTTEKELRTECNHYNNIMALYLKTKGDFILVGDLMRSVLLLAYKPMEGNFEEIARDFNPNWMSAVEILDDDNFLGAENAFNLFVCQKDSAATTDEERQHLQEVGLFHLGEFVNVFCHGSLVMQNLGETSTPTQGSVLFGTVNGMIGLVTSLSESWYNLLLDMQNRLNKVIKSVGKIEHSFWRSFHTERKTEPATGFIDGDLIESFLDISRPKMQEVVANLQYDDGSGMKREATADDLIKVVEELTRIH

Molecule `O=C1CCC(N2C(=O)c3ccc(N4CCOCC4)cc3C2=O)C(=O)N1` (centres unmarked) [PT-179] has an EC50 (CRBN; HEK293T cells) of 2880 nM, an EC50 (CRBN; HEK293T cells, No SD40 (fig. S16 protocol)) of 641 nM and an EC50 (CRBN; HEK293T cells, SD40–PRKRA low expression (single-copy lentiviral integration)) of 350 nM. For the same molecule, the EC50 (CRBN; HEK293T cells, SD40–PRKRA overexpression (plasmid transfection)) was 169 nM, the EC50 (CRBN; U2OS cells) was 979 nM and the “lower apparent potency than pomalidomide” value (CRBN; HEK293T and U2OS cells) was 7 fold. The “increase in apparent affinity for CRBN” value (CRBN; HEK293T cells overexpressing SD40–PRKRA) was 3.8 fold, the “increase in apparent affinity for CRBN” value (CRBN; HEK293T cells stably expressing SD40–PRKRA) was 1.8 fold and the “time at which PRKRA degradation occurred” value ([1]; 1 μM PT-179, SD40-PRKRA) was no more than 10 min. The “time to near complete PRKRA degradation (in words)” value ([1]; 1 μM PT-179, SD40-PRKRA) was “nearly complete within one hour” and the “degradation of N- or C-terminal SD40 fusion constructs (in words)” value ([1]; 24 hrs, 1 nM-10 µM) was “robust dose-dependent degradation”.
